The values below come from PubChem BioAssay (NCI).

Test systems include MCF7 breast; SW-620 colon; KM12 colon; ACHN renal; NCI-H23 lung; HT29 colon; HS 578T breast; SF-539 CNS; SN12C renal; TK-10 renal; NCI-H522 lung.
What all share (test): NCI tumour cell line growth inhibition, 48 h

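A five-concentration, 48-hour dose response in 96-well plates underlies each endpoint, interpolated linearly between surrounding concentrations. The concentration for 50% growth inhibition is given as GI50. Definition used: TGI = concentration required for complete inhibition of growth.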

Take `O=C1C(F)=CC(COC(c2ccccc2)(c2ccccc2)c2ccccc2)OC1n1cc(F)c(=O)[nH]c1=O` (stereo not given): the TGI in the test on MCF7 breast was 4.96 µM; in the test with SW-620 colon, 4.26 µM; in the test with KM12 colon, 7.72 µM; with ACHN renal, 3.08 µM; with NCI-H23 lung, 3.91 µM; in the test with HT29 colon it was 1.59 µM. Besides, the TGI in the test with HS 578T breast is more than 45 µM; with SF-539 CNS, 3.75 µM; in the test with SN12C renal, 4.29 µM; in the test on TK-10 renal, 3.43 µM; with NCI-H522 lung, 3.1 µM.
Turning to `NC(=Nc1ccc(O)cc1)S(=O)(=O)O`, the TGI with MCF7 breast, with SW-620 colon, in the test on KM12 colon, in the test with ACHN renal, in the test on NCI-H23 lung and in the test with HT29 colon was more than 100 µM throughout. Also, the TGI in the test with HS 578T breast, in the test with SF-539 CNS, in the test on SN12C renal, in the test with TK-10 renal and in the test with NCI-H522 lung was more than 100 µM throughout.
As for `C=CC1ON(Cc2ccccc2)CCc2cc(OC)c(OC)cc21` (stereo not given), the TGI with MCF7 breast, in the test on SW-620 colon, in the test on KM12 colon, in the test with ACHN renal, in the test with NCI-H23 lung and in the test with HT29 colon was more than 100 µM in each case. Besides, the TGI in the test on HS 578T breast, in the test on SF-539 CNS, with SN12C renal, in the test with TK-10 renal and in the test on NCI-H522 lung was more than 100 µM throughout.
Take `CC(C)=CC(=O)O[C@H]1C(=O)O[C@@H]2C[C@H]3[C@H](C)C(=O)C(O[C@@H]4O[C@H](CO)[C@@H](O)[C@H](O)[C@H]4O)=C[C@]3(C)[C@H]3[C@@H](O)[C@H](O)[C@]4(C(=O)O)OC[C@]32[C@@H]14`: the GI50 in the test on MCF7 breast was 22.2 µM; in the test on KM12 colon, 49.1 µM; in the test with ACHN renal it was more than 100 µM; in the test on HT29 colon, 35.6 µM; with HS 578T breast, more than 100 µM; in the test with SF-539 CNS, 26.6 µM. Besides, the GI50 in the test on SN12C renal was more than 100 µM; with NCI-H522 lung it was 29 µM. For the same molecule, the TGI in the test with MCF7 breast was 66.1 µM; in the test on SW-620 colon it was more than 100 µM; in the test on KM12 colon, more than 100 µM; with ACHN renal, more than 100 µM; in the test with NCI-H23 lung, more than 100 µM; in the test with HT29 colon it was more than 100 µM. Further, the TGI was more than 100 µM in the test with HS 578T breast; 67.1 µM in the test on SF-539 CNS; more than 100 µM with SN12C renal; more than 100 µM in the test on TK-10 renal; 52.6 µM with NCI-H522 lung.
In the case of `O=c1[nH]nc(-c2ccccc2)n1/N=C/c1c[nH]c2ccccc12`, the TGI in the test with MCF7 breast, in the test with SW-620 colon, in the test on KM12 colon, with ACHN renal, in the test on NCI-H23 lung and in the test on HT29 colon was more than 100 µM throughout. Besides, the TGI is more than 100 µM in the test on HS 578T breast; more than 100 µM in the test on SF-539 CNS; more than 100 µM with SN12C renal; 75.6 µM in the test with TK-10 renal; more than 100 µM in the test with NCI-H522 lung.
With `NNc1nc2ccccc2c(=O)n1NC(=O)C(=O)Nc1cccc(C(F)(F)F)c1`, the TGI in the test with MCF7 breast, in the test with SW-620 colon, in the test with KM12 colon, with ACHN renal, in the test with NCI-H23 lung and with HT29 colon was more than 100 µM each time. Also, the TGI with HS 578T breast, in the test with SF-539 CNS, in the test on SN12C renal, in the test with TK-10 renal and in the test on NCI-H522 lung was more than 100 µM throughout.
Consider `c1ccc(-c2sc(-c3cccs3)cc2Cc2cccs2)cc1`, for which the TGI in the test on MCF7 breast, in the test on SW-620 colon, with KM12 colon, in the test with ACHN renal, in the test on NCI-H23 lung and with HT29 colon was more than 10 µM in each case. Besides, the TGI in the test on HS 578T breast, with SF-539 CNS, in the test with SN12C renal, in the test on TK-10 renal and in the test with NCI-H522 lung was more than 10 µM throughout.
As to `O=c1[nH]nc(-c2ccccc2)n1/N=C/c1ccncc1`, the TGI with MCF7 breast, with SW-620 colon, in the test with KM12 colon, with ACHN renal, in the test with NCI-H23 lung and in the test with HT29 colon was more than 100 µM throughout. For the same molecule, the TGI is 97.3 µM in the test on HS 578T breast; more than 100 µM in the test on SF-539 CNS; more than 100 µM with SN12C renal; more than 100 µM with TK-10 renal; more than 100 µM with NCI-H522 lung.
With `Cc1ccc(OCC2OC(n3cnc4nc(Cl)nc(Cl)c43)CC2Oc2ccc(C)cc2)cc1` (stereo not given), the TGI with MCF7 breast amounted to 20.6 µM; in the test on SW-620 colon, 28 µM; with KM12 colon, 23.7 µM; with ACHN renal, 7.9 µM; with NCI-H23 lung, 24.5 µM; in the test on HT29 colon it was 20.4 µM. Also, the TGI in the test on HS 578T breast is 54.6 µM; in the test on SF-539 CNS, 13.9 µM; in the test on SN12C renal it was 20.5 µM; with TK-10 renal it was 28.7 µM; with NCI-H522 lung, 4.31 µM.
Regarding `O=C1Sc2ccc(Br)cc2C(=O)Sc2ccccc21`, the TGI in the test with MCF7 breast stood at 48.3 µM; in the test on SW-620 colon, 67.7 µM; in the test with KM12 colon, 33.8 µM; in the test with ACHN renal, 32.8 µM; in the test on NCI-H23 lung it was 36 µM; in the test with HT29 colon, 35.3 µM. Moreover, the TGI with HS 578T breast turned out to be 39.3 µM; in the test on SF-539 CNS, 26.4 µM; in the test with SN12C renal it was 34.8 µM; in the test on TK-10 renal it was 38.3 µM; with NCI-H522 lung it was 22.1 µM.
As for `CCOC(=O)N1CCN(c2ccc3c(C)cc(C)nc3n2)CC1`, the TGI in the test on MCF7 breast, in the test with SW-620 colon, in the test on KM12 colon, in the test on ACHN renal, in the test with NCI-H23 lung and in the test with HT29 colon was more than 100 µM throughout. In addition, the TGI with HS 578T breast, with SF-539 CNS, with SN12C renal, with TK-10 renal and with NCI-H522 lung was more than 100 µM each time.
`CCOC(=O)/C(=C\c1ccc(N(C)C)cc1)S(=O)(=O)C(F)(F)C(F)(F)C(F)(F)C(F)(F)F`: the TGI in the test with MCF7 breast, in the test with SW-620 colon, with KM12 colon, in the test with ACHN renal, in the test on NCI-H23 lung and with HT29 colon was more than 100 µM each time. Besides, the TGI in the test with HS 578T breast, in the test with SF-539 CNS, with SN12C renal, in the test with TK-10 renal and in the test on NCI-H522 lung was more than 100 µM each time.
